Source: the NIST ThermoML archive (doi:10.1021/acs.jced.8b00854)
Where “and” joins values, the source holds several entries; their conditions need not be identical. Equal values may be shown once. ± gives the expanded uncertainty stated by the source.

Tests used:
[1] = refractive index (Na D-line) (dimensionless); xn = mol fraction of the nth substance listed; conditions: 100 kPa, Liquid, Standard Abbe refractometry, x2 = 0
[2] = xn = mol fraction of the nth substance listed; conditions: 100 kPa, Liquid, Vibrating tube method, x2 = 0
[3] = 100 kPa, Liquid, Vibrating tube method
[4] = refractive index (Na D-line) (dimensionless); conditions: 100 kPa, Liquid, Standard Abbe refractometry

Structure (SMILES) | refractive index ([1]; 293.15 K) | refractive index ([1]; 303.15 K) | refractive index ([1]; 313.15 K) | refractive index ([1]; 323.15 K) | refractive index ([1]; 333.15 K) | refractive index ([1]; 343.15 K) | mass density ([2]; 323.15 K) [kg/m3] | mass density ([2]; 333.15 K) [kg/m3] | mass density ([2]; 343.15 K) [kg/m3] | mass density ([3]; 323.15 K) [kg/m3] | mass density ([3]; 333.15 K) | mass density ([3]; 343.15 K) [kg/m3] | refractive index ([4]; 293.15 K) | refractive index ([4]; 303.15 K) | refractive index ([4]; 313.15 K) | refractive index ([4]; 323.15 K) | refractive index ([4]; 333.15 K) | refractive index ([4]; 343.15 K)
O [water] + CCn1cc[n+](C)c1.F[B-](F)(F)F | 1.3335 ± 0.0016 | 1.3315 ± 0.0016 | 1.3305 ± 0.0016 | 1.329 ± 0.0016 | 1.3275 ± 0.0016 | 1.326 ± 0.0016 | 988.04 ± 2 | 981.56 ± 2 | 972.75 ± 2 | – | – | – | – | – | – | – | – | –
O [water] + CCCCCCn1cc[n+](C)c1.F[B-](F)(F)F | 1.3335 ± 0.0016 | 1.3315 ± 0.0016 | 1.3305 ± 0.0016 | 1.329 ± 0.0016 | 1.3275 ± 0.0016 | 1.326 ± 0.0016 | 988.04 ± 2 | 981.56 ± 2 | 972.75 ± 2 | – | – | – | – | – | – | – | – | –
O [water] + CCCCCCCCOS(=O)(=O)[O-].CCCCn1cc[n+](C)c1 | 1.3335 ± 0.0016 | 1.3315 ± 0.0016 | 1.3305 ± 0.0016 | 1.329 ± 0.0016 | 1.3275 ± 0.0016 | 1.326 ± 0.0016 | 988.04 ± 2 | 981.56 ± 2 | 972.75 ± 2 | – | – | – | – | – | – | – | – | –
O [water] + CCCCCCCC[n+]1ccn(C)c1.F[B-](F)(F)F | 1.3335 ± 0.0016 | 1.3315 ± 0.0016 | 1.3305 ± 0.0016 | 1.329 ± 0.0016 | 1.3275 ± 0.0016 | 1.326 ± 0.0016 | 988.04 ± 2 | 988.04 ± 2 | 972.75 ± 2 | – | – | – | – | – | – | – | – | –
O [water] + CCCCn1cc[n+](C)c1.O=S(=O)([O-])C(F)(F)F | 1.3335 ± 0.0016 | 1.3315 ± 0.0016 | 1.3305 ± 0.0016 | 1.329 ± 0.0016 | 1.3275 ± 0.0016 | 1.326 ± 0.0016 | 988.04 ± 2 | 981.56 ± 2 | 972.75 ± 2 | – | – | – | – | – | – | – | – | –
O [water] + CCn1cc[n+](C)c1.O=S(=O)([O-])C(F)(F)F | 1.3335 ± 0.0016 | 1.3315 ± 0.0016 | 1.3305 ± 0.0016 | 1.329 ± 0.0016 | 1.3275 ± 0.0016 | 1.326 ± 0.0016 | 988.04 ± 2 | 981.56 ± 2 | 972.75 ± 2 | – | – | – | – | – | – | – | – | –
O [water] | – | – | – | – | – | – | – | – | – | 988.04 ± 2 | 981.56 ± 2 kg/m3 and 988.04 ± 2 kg/m3 | 972.75 ± 2 | 1.3335 ± 0.0016 | 1.3315 ± 0.0016 | 1.3305 ± 0.0016 | 1.329 ± 0.0016 | 1.3275 ± 0.0016 | 1.326 ± 0.0016
O [water] + CCCCn1cc[n+](C)c1.F[B-](F)(F)F | 1.3335 ± 0.0016 | 1.3315 ± 0.0016 | 1.3305 ± 0.0016 | 1.329 ± 0.0016 | 1.3275 ± 0.0016 | 1.326 ± 0.0016 | 988.04 ± 2 | 981.56 ± 2 | 972.75 ± 2 | – | – | – | – | – | – | – | – | –
